The text below walks through data of patent publication US20250332300A1 (priority 2024, published 2025).

What all share (type): binding
Assay [1] deals with T1, mouse HER2 (23-653) (Mus musculus, UniProt P70424). Briefly: Surface plasmon resonance (SPR) for assessment of peptide affinity, mouse HER2. Also noted: mouse HER2 (23-653) using a Cy5 labeled peptide as a probe; made in house. To be noted: SPR, mouse HER2 extracellular domain, 25° C., 1:1 binding model; read-out: moHER2-SPR-ONC KD. The text has this:
Each protein was immobilized either onto a SA sensorchip (Cytiva, BR-1005-31) or CM5 sensorchip (Cytiva, BR-1005-30) to a density of 800-2000 RU.
For orientation: In SPR one partner is held on a chip, and binding of the other changes the refractive index at the surface.

Assay [2] has as its target T2, human HER2 (23-652) (Homo sapiens, UniProt P04626). Put plainly: TR-FRET competition assay for peptide potency, human HER2. Also noted: towards human HER2 (23-652) and mouse HER2 (23-653); made in house; host or cells: mammalian cells.
Assay [3] addresses T2, human HER2 (23-652). Put plainly: Surface plasmon resonance (SPR) for assessment of peptide affinity, human HER2. More on the design: towards human HER2 (23-652) and mouse HER2 (23-653); made in house. To be noted: SPR, human HER2 extracellular domain, 25° C., 1:1 binding model; read-out: huHER2-SPR-ONC KD. Put shortly:
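Binding kinetics fitted from sensorgrams with 280 s peptide association then 3000 s dissociation (30 uL/min), using HER2 (23-652) either directly immobilized (SA/CM5) or anti-Fc-captured; 3 M magnesium chloride used for regeneration.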

The target in assay [4] is T1, mouse HER2 (23-653). Put plainly: TR-FRET competition assay for peptide potency, mouse HER2. Also noted: mouse HER2 (23-653) using a Cy5 labeled peptide as a probe; made in house; host or cells: mammalian cells. The note with it: TR-FRET competition with Cy5 labeled peptide probe, 0.1 nM mouse HER2, 24 h incubation; read-out: moHER2 TR-FRET IC50. For orientation: Time-resolved FRET reads energy transfer from a long-lived donor to a nearby acceptor.

pIC50, pKd: −log10 of the molar value. Like-named read-outs stand apart in the source and are kept apart here. Starred links: 1 amine or outer side, 2 acyl side, 3 side chain; linkers in the order of their positions; H or OH if unused. Positions of bridges follow the written chain, without caps; N, C: chain ends. Non-standard residues stand in square brackets, D forms with d. Residues, ends and D or L forms follow the SMILES beside them. *: point of attachment. DOTA = O=C(O)CN1CCN(CC(=O)O)CCN(CC(=O)*)CCN(CC(=O)O)CC1; Trp(5-OH) = N[C@@H](Cc1c[nH]c2ccc(O)cc12)C(=O)O; NMePhe(4-F) = CN[C@@H](Cc1ccc(F)cc1)C(=O)O; NMehPhe = CN[C@@H](CCc1ccccc1)C(=O)O; Glutaryl = O=C(CCCC(=O)[*:2])[*:1]; NMeAhp(2) = CCCCC[C@H](NC)C(=O)O; Aad = N[C@@H](CCCC(=O)O)C(=O)O; Gly(cPr) = N[C@H](C(=O)O)C1CC1; NMeD = CN[C@@H](CC(=O)O)C(=O)O; NMeK = CN[C@@H](CCCCN)C(=O)O; NMeDap = CN[C@@H](CN)C(=O)O; 3Amb = NCc1cccc(C(=O)O)c1; NMeS = CN[C@@H](CO)C(=O)O Bounds are passed on as bounds.

The pKd is the negative decadic logarithm of the Kd, by convention in mol/L. Usually pIC50 stands for −log10 of the IC50, conventionally taken in molar units.

With `CC(=O)NCCCC[C@H]1C(=O)N[C@@H](Cc2c[nH]c3ccc(O)cc23)C(=O)N[C@@H](Cc2c[nH]c3ccccc23)C(=O)N[C@@H](C2CC2)C(=O)N(C)[C@H](C(=O)N(C)[C@@H](Cc2ccc(F)cc2)C(N)=O)CNC(=O)CCCC(=O)N[C@@H](Cc2ccc(O)cc2)C(=O)N[C@@H](CO)C(=O)N(C)[C@@H](CCc2ccccc2)C(=O)N1C` [Example A7, (3S,6S,9S,12S,15S,18S,21S,24S)-9-((1H-indol-3-yl)methyl)-15-(4-acetamidobutyl)-N-((S)-1-amino-3-(4-fluorophenyl)-1-oxopropan-2-yl)-6-cyclopropyl-12-((5-hydroxy-1H-indol-3-yl)methyl)-24-(4-hydroxybenzyl)-21-(hydroxymethyl)-N,4,16,19-tetramethyl-5,8,11,14,17,20,23,26,30-nonaoxo-18-phenethyl-1,4,7,10,13,16,19,22,25-nonaazacyclotriacontane-3-carboxamide] (YS[NMehPhe][NMeK](Ac)[Trp(5-OH)]W[Gly(cPr)][NMeDap][NMePhe(4-F)]-NH2; linker N-8 via Glutaryl), the pKd at mouse HER2 (23-653) [1] is 7.64; at human HER2 (23-652) [3] it was 7.74. Besides, the figures for the negative logarithm of the IC50 (pIC50) on human HER2 (23-652) [2] (read-out: huHER2 TR-FRET IC50) and at mouse HER2 (23-653) [4] were 7.74 and 7.40, respectively.

As for `CC(=O)N[C@H]1CCC(=O)NCC[C@@H](C(=O)N(C)[C@@H](Cc2ccc(F)cc2)C(N)=O)N(C)C(=O)[C@H](C2CC2)NC(=O)[C@H](Cc2c[nH]c3ccccc23)NC(=O)[C@H](Cc2c[nH]c3ccc(O)cc23)NC(=O)[C@H](CO)N(C)C(=O)[C@H](CCc2ccccc2)N(C)C(=O)[C@H](CO)NC(=O)[C@H](Cc2ccc(O)cc2)NC1=O` [Example A10, (2S,5S,8S,11S,14S,17S,20S,23S,30S)-17-((1H-indol-3-yl)methyl)-30-acetamido-N-((S)-1-amino-3-(4-fluorophenyl)-1-oxopropan-2-yl)-20-cyclopropyl-14-((5-hydroxy-1H-indol-3-yl)methyl)-2-(4-hydroxybenzyl)-5,11-bis(hydroxymethyl)-N,7,10,22-tetramethyl-3,6,9,12,15,18,21,27,31-nonaoxo-8-phenethyl-1,4,7,10,13,16,19,22,26-nonaazacyclohentriacontane-23-carboxamide], the pKd was 6.28 at mouse HER2 (23-653) [1] and 6.32 on human HER2 (23-652) [3]. Moreover, the negative logarithm of the IC50 (pIC50) on human HER2 (23-652) [2] (read-out: huHER2 TR-FRET IC50) was 6.27; on mouse HER2 (23-653) [4] it was 6.16.

In the case of `CC(=O)NCCCC[C@H]1C(=O)N[C@@H](Cc2c[nH]c3ccc(O)cc23)C(=O)N[C@@H](C)C(=O)N[C@@H](C2CC2)C(=O)N(C)[C@H](C(=O)N(C)[C@@H](Cc2ccc(F)cc2)C(=O)N[C@@H](CCCCNC(=O)CN2CCN(CC(=O)O)CCN(CC(=O)O)CCN(CC(=O)O)CC2)C(N)=O)CNC(=O)CCC[C@H](NC(C)=O)C(=O)N[C@@H](Cc2ccc(O)cc2)C(=O)N[C@@H](CO)C(=O)N(C)[C@@H](CCc2ccccc2)C(=O)N1C` [Example B3] (Ac-[Aad]YS[NMehPhe][NMeK](Ac)[Trp(5-OH)]A[Gly(cPr)][NMeDap][NMePhe(4-F)]K(DOTA)-NH2; lactam 1-9), the pKd at mouse HER2 (23-653) [1] and at human HER2 (23-652) [3] was under 5.22 each time. The pIC50 at human HER2 (23-652) [2] (read-out: huHER2 TR-FRET IC50) and at mouse HER2 (23-653) [4] was under 6.00 each time.

For `CC(=O)N[C@H]1CCC(=O)NC[C@@H](C(=O)N(C)[C@@H](Cc2ccc(F)cc2)C(N)=O)NC(=O)[C@H](C2CC2)NC(=O)[C@H](Cc2c[nH]c3ccccc23)NC(=O)[C@H](Cc2c[nH]c3ccc(O)cc23)NC(=O)[C@H](CO)N(C)C(=O)[C@H](CCc2ccccc2)N(C)C(=O)[C@H](CO)NC(=O)[C@H](Cc2ccc(O)cc2)NC1=O` [Example A12, (3S,6S,9S,12S,15S,18S,21S,24S,27S)-9-((1H-indol-3-yl)methyl)-27-acetamido-N-((S)-1-amino-3-(4-fluorophenyl)-1-oxopropan-2-yl)-6-cyclopropyl-12-((5-hydroxy-1H-indol-3-yl)methyl)-24-(4-hydroxybenzyl)-15,21-bis(hydroxymethyl)-N,16,19-trimethyl-5,8,11,14,17,20,23,26,30-nonaoxo-18-phenethyl-1,4,7,10,13,16,19,22,25-nonaazacyclotriacontane-3-carboxamide], the pKd at mouse HER2 (23-653) [1] is 6.06; at human HER2 (23-652) [3] it was 5.87. Also, the negative-log IC50 (pIC50) at human HER2 (23-652) [2] (read-out: huHER2 TR-FRET IC50) and on mouse HER2 (23-653) [4] was under 6.00 each time.

On to `CN1C(=O)[C@H](CO)NC(=O)[C@H](Cc2ccc(O)cc2)NC(=O)c2cccc(c2)CNC(=O)C[C@@H](C(=O)N(C)[C@@H](Cc2ccc(F)cc2)C(N)=O)N(C)C(=O)[C@H](C2CC2)NC(=O)[C@H](Cc2c[nH]c3ccccc23)NC(=O)[C@H](Cc2c[nH]c3ccc(O)cc23)NC(=O)[C@H](CO)N(C)C(=O)[C@@H]1CCc1ccccc1` [Example A24, (4S,7S,10S,13S,16S,19S,22S,25S)-19-((1H-indol-3-yl)methyl)-N-((S)-1-amino-3-(4-fluorophenyl)-1-oxopropan-2-yl)-22-cyclopropyl-16-((5-hydroxy-1H-indol-3-yl)methyl)-4-(4-hydroxybenzyl)-7,13-bis(hydroxymethyl)-N,9,12,24-tetramethyl-2,5,8,11,14,17,20,23,27-nonaoxo-10-phenethyl-3,6,9,12,15,18,21,24,28-nonaaza-1(1,3)-benzenacyclononacosaphane-25-carboxamide] ([3Amb]YS[NMehPhe][NMeS][Trp(5-OH)]W[Gly(cPr)][NMeD][NMePhe(4-F)]-NH2; lactam N-9), for which the results for the negative logarithm of the Kd (pKd) at mouse HER2 (23-653) [1] and on human HER2 (23-652) [3] were 5.29 and 5.55, respectively. The pIC50 at human HER2 (23-652) [2] (read-out: huHER2 TR-FRET IC50) and at mouse HER2 (23-653) [4] was under 6.00 throughout.

For `CC(=O)NCCCC[C@H]1C(=O)N[C@@H](Cc2c[nH]c3ccc(O)cc23)C(=O)N[C@@H](Cc2c[nH]c3ccccc23)C(=O)N[C@@H]([C@H](C)O)C(=O)N(C)[C@H](C(=O)N(C)[C@@H](Cc2ccc(F)cc2)C(=O)N[C@@H](CCCCNC(=O)N2CCN(CC(=O)O)CC2)C(N)=O)CNC(=O)CC[C@H](NC(=O)CCNC(=O)CN2CCN(CC(=O)O)CCN(CC(=O)O)CCN(CC(=O)O)CC2)C(=O)N[C@@H](Cc2ccc(O)cc2)C(=O)N[C@@H](CO)C(=O)N(C)[C@@H](CCc2ccccc2)C(=O)N1C` [Example C28], the negative logarithm of the Kd (pKd) at mouse HER2 (23-653) [1] is 8.51; on human HER2 (23-652) [3], 9.22. The pIC50 at human HER2 (23-652) [2] (value in parentheses (**): recalculated after further repetition, read-out: huHER2 TR-FRET IC50, recalculated value achieved after further repetition) is 8.89; on mouse HER2 (23-653) [4] it was 8.36.

Turning to `CCCCC[C@@H](C(N)=O)N(C)C(=O)[C@@H]1CNC(=O)CCC[C@H](NC(C)=O)C(=O)N[C@@H](Cc2ccc(O)cc2)C(=O)N[C@@H](CO)C(=O)N(C)[C@@H](CCc2ccccc2)C(=O)N(C)[C@@H](CCCCNC(C)=O)C(=O)N[C@@H](Cc2c[nH]c3ccc(O)cc23)C(=O)N[C@@H](Cc2c[nH]c3ccccc23)C(=O)N[C@@H](C2CC2)C(=O)N1C` [Example A15, (3S,6S,9S,12S,15S,18S,21S,24S,27S)-9-((1H-indol-3-yl)methyl)-27-acetamido-15-(4-acetamidobutyl)-N-((S)-1-amino-1-oxoheptan-2-yl)-6-cyclopropyl-12-((5-hydroxy-1H-indol-3-yl)methyl)-24-(4-hydroxybenzyl)-21-(hydroxymethyl)-N,4,16,19-tetramethyl-5,8,11,14,17,20,23,26,31-nonaoxo-18-phenethyl-1,4,7,10,13,16,19,22,25-nonaazacyclohentriacontane-3-carboxamide] (Ac-[Aad]YS[NMehPhe][NMeK](Ac)[Trp(5-OH)]W[Gly(cPr)][NMeDap][NMeAhp(2)]-NH2; lactam 1-9), the pKd on mouse HER2 (23-653) [1] and at human HER2 (23-652) [3] was 7.62 throughout. The negative-log IC50 (pIC50) on human HER2 (23-652) [2] (read-out: huHER2 TR-FRET IC50) was 7.57; at mouse HER2 (23-653) [4] it was 7.26.

`CC(=O)NCCCC[C@H]1C(=O)N[C@@H](Cc2c[nH]c3ccc(O)cc23)C(=O)N[C@@H](Cc2c[nH]c3ccccc23)C(=O)N[C@@H](C2CC2)C(=O)N(C)[C@H](C(=O)N(C)[C@@H](Cc2ccc(F)cc2)C(=O)N2CCC[C@H]2C(N)=O)CNC(=O)CCC[C@H](NC(C)=O)C(=O)N[C@@H](Cc2ccc(O)cc2)C(=O)N[C@@H](CO)C(=O)N(C)[C@@H](CCc2ccccc2)C(=O)N1C` [Example A2, (3S,6S,9S,12S,15S,18S,21S,24S,27S)-9-((1H-indol-3-yl)methyl)-27-acetamido-15-(4-acetamidobutyl)-N-((S)-1-((S)-2-carbamoylpyrrolidin-1-yl)-3-(4-fluorophenyl)-1-oxopropan-2-yl)-6-cyclopropyl-12-((5-hydroxy-1H-indol-3-yl)methyl)-24-(4-hydroxybenzyl)-21-(hydroxymethyl)-N,4,16,19-tetramethyl-5,8,11,14,17,20,23,26,31-nonaoxo-18-phenethyl-1,4,7,10,13,16,19,22,25-nonaazacyclohentriacontane-3-carboxamide]: the results for the negative-log Kd (pKd) at mouse HER2 (23-653) [1] and on human HER2 (23-652) [3] were 9.70 and 9.40, respectively. Moreover, the pIC50 at human HER2 (23-652) [2] (read-out: huHER2 TR-FRET IC50) and on mouse HER2 (23-653) [4] was 9.52 throughout.
